Results taken from the NIST ThermoML archive (doi:10.1016/j.tca.2008.05.002).

Experiment: molar heat capacity at saturation pressure
Conditions: Crystal 4, Small (less than 1 g) adiabatic calorimetry

CCCCn1cc[n+](C)c1.O=[N+]([O-])[O-] [1-butyl-3-methylimidazolium nitrate]
Conditions | molar heat capacity [J/K/mol]
5.05 K | 0.5514
5.29 K | 0.65
5.54 K | 0.7586
5.8 K | 0.8834
6.06 K | 1.024
6.36 K | 1.195
6.69 K | 1.409
7.03 K | 1.636
7.37 K | 1.896
7.72 K | 2.169
8.08 K | 2.473
8.44 K | 2.803
8.8 K | 3.145
9.16 K | 3.525
9.53 K | 3.922
9.91 K | 4.346
10.39 K | 4.934
10.97 K | 5.66
11.56 K | 6.445
12.15 K | 7.288
12.75 K | 8.194
13.35 K | 9.123
13.96 K | 10.11
14.57 K | 11.12
15.18 K | 12.21
15.91 K | 13.62
16.74 K | 15.21
17.58 K | 16.85
18.42 K | 18.5
19.27 K | 20.2
20.12 K | 21.95
21.25 K | 24.37
22.68 K | 27.47
24.11 K | 30.69
25.54 K | 33.91
26.98 K | 37.09
28.44 K | 40.37
29.9 K | 43.58
31.35 K | 46.78
32.99 K | 50.29
34.79 K | 54.05
36.58 K | 57.69
38.37 K | 61.25
40.17 K | 64.77
42.06 K | 68.4
44.07 K | 72.18
46.09 K | 75.84
48.1 K | 79.42
50.1 K | 82.76
52.11 K | 86.06
54.13 K | 89.28
56.14 K | 92.32
58.16 K | 95.28
60.19 K | 98.2
62.22 K | 101.03
64.26 K | 103.75
66.29 K | 106.43
68.34 K | 109.04
70.38 K | 111.5
72.42 K | 113.97
74.46 K | 116.39
76.5 K | 118.68
78.55 K | 120.96
80.3 K | 122.59
80.56 K | 122.99
80.61 K | 123.11
82.15 K | 124.42
82.41 K | 124.84
82.67 K | 125.14
84.01 K | 126.23
84.27 K | 126.67
84.72 K | 127.15
85.89 K | 128.02
86.14 K | 128.46
87.78 K | 129.91
88.03 K | 130.27
89.67 K | 131.68
89.92 K | 132.02
91.58 K | 133.45
91.83 K | 133.79
93.5 K | 135.16
93.75 K | 135.5
95.43 K | 136.91
95.68 K | 137.25
97.36 K | 138.62
97.62 K | 138.98
99.3 K | 140.37
99.56 K | 140.68
101.25 K | 142.08
102.25 K | 142.93
103.21 K | 143.75
104.22 K | 144.6
105.18 K | 145.34
106.19 K | 146.25
107.15 K | 146.93
108.17 K | 147.88
109.13 K | 148.52
110.16 K | 149.43
111.11 K | 150.07
112.15 K | 150.98
113.1 K | 151.62
114.14 K | 152.51
115.1 K | 153.15
116.14 K | 154.02
117.1 K | 154.68
118.14 K | 155.53
119.11 K | 156.13
120.15 K | 157.05
121.12 K | 157.68
122.17 K | 158.58
123.13 K | 159.23
124.19 K | 160.07
125.15 K | 160.68
126.21 K | 161.54
127.17 K | 162.15
128.23 K | 163.05
129.2 K | 163.65
130.26 K | 164.54
131.23 K | 165.12
132.3 K | 166.01
133.26 K | 166.61
134.34 K | 167.5
135.3 K | 168.06
136.37 K | 168.99
137.33 K | 169.59
138.41 K | 170.52
139.37 K | 171.1
140.46 K | 172.05
141.42 K | 172.55
142.5 K | 173.51
143.46 K | 174.12
144.54 K | 175.06
145.5 K | 175.61
146.58 K | 176.59
147.55 K | 177.16
148.63 K | 178.1
149.59 K | 178.69
150.67 K | 179.61
151.64 K | 180.2
152.72 K | 181.14
153.69 K | 181.74
154.76 K | 182.69
155.74 K | 183.23
156.81 K | 184.24
157.78 K | 184.76
158.86 K | 185.75
159.83 K | 186.31
160.91 K | 187.26
161.87 K | 187.84
162.96 K | 188.75
163.91 K | 189.21
165 K | 190.24
165.95 K | 190.7
167.05 K | 191.85
168 K | 192.27
169.09 K | 193.36
170.04 K | 193.84
171.13 K | 194.94
172.08 K | 195.39
173.17 K | 196.55
174.12 K | 196.86
175.21 K | 198.14
176.16 K | 198.59
177.25 K | 199.73
178.2 K | 200.16
179.28 K | 201.42
180.24 K | 201.83
181.31 K | 203.03
182.28 K | 203.44
183.34 K | 204.64
184.31 K | 205.05
185.37 K | 206.25
186.34 K | 206.66
187.39 K | 207.86
188.36 K | 208.47
189.42 K | 209.67
190.39 K | 210.08
191.44 K | 211.28
192.41 K | 211.89
193.45 K | 212.89
194.43 K | 213.5
195.47 K | 214.71
196.44 K | 215.31
197.48 K | 216.31
198.45 K | 216.92
199.49 K | 218.13
200.46 K | 218.73
201.55 K | 219.94
202.53 K | 220.54
203.67 K | 221.75
204.65 K | 222.35
205.78 K | 223.56
206.76 K | 224.16
207.89 K | 225.37
208.87 K | 225.97
210 K | 227.38
210.98 K | 227.78
212.11 K | 229.19
213.09 K | 229.6
214.21 K | 231
215.19 K | 231.61
216.3 K | 232.82
217.29 K | 233.62
218.4 K | 234.63
219.38 K | 235.63
220.49 K | 236.44
221.47 K | 237.44
222.58 K | 238.25
